Where “and” joins values, the source holds several entries; their conditions need not be identical. Equal values may be shown once.
Assays:
[1] = biological target: Neuronal acetylcholine receptor subunit alpha-4 (Rattus norvegicus, UniProt P09483)
[2] = biological target: Neuronal acetylcholine receptor subunit alpha-7 (Rattus norvegicus, UniProt Q05941)
[3] = biological target: Neuronal acetylcholine receptor subunit alpha-3 (Rattus norvegicus, UniProt P04757)
[4] = biological target: T1, Muscarinic acetylcholine receptor M2 (Rattus norvegicus, UniProt P10980)
T1 sequence (P10980 whole entry): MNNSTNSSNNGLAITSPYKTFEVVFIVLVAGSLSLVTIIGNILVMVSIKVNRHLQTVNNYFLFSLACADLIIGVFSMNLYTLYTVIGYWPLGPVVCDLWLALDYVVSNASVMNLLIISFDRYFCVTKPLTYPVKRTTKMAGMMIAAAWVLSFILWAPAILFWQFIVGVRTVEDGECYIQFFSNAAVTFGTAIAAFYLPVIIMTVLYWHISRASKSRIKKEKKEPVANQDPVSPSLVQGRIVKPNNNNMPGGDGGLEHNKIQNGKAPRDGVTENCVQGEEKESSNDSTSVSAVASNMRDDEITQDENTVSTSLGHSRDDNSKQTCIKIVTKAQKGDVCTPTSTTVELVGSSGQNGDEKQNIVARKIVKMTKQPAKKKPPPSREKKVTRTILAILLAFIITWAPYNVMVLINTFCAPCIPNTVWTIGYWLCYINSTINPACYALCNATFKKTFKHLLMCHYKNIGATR

[5] = biological target: Nicotinic acetylcholine receptor (Rattus leucopus, UniProt Q62594)
Chain of Nicotinic acetylcholine receptor (Q62594 whole entry): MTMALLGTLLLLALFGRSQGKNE

Chain of Neuronal acetylcholine receptor subunit alpha-3 (P04757 whole entry): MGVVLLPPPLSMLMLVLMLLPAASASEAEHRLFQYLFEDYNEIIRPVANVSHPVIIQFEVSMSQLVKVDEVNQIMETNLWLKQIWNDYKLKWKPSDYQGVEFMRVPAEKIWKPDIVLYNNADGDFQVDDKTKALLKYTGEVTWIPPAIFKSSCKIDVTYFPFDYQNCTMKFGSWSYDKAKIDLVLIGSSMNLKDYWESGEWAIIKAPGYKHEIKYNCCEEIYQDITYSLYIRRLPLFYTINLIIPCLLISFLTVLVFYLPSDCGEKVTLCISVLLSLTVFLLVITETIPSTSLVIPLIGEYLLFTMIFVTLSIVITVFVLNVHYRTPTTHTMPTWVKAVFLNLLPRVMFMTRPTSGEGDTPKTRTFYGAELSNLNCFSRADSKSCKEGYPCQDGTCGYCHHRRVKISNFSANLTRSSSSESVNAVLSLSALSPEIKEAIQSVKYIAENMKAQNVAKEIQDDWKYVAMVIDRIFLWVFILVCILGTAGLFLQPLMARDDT
Chain of Neuronal acetylcholine receptor subunit alpha-4 (P09483 whole entry): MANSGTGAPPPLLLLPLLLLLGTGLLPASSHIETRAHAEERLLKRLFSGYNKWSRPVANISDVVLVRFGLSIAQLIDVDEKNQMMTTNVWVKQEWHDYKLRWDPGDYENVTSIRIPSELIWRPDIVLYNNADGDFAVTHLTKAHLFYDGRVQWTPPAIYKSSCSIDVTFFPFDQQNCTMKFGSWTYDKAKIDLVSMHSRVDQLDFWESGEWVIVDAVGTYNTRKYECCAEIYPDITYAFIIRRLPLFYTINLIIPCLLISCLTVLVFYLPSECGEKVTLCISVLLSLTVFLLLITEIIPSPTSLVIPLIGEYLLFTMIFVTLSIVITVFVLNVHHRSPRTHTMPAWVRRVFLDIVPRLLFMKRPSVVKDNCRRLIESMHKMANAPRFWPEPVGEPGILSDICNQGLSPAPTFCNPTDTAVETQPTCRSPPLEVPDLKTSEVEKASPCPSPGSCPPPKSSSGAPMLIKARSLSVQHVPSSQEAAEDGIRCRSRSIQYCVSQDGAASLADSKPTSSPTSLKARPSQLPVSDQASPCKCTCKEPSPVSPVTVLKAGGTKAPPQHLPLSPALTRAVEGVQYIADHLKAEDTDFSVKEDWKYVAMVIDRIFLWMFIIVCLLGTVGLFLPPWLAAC
Chain of Neuronal acetylcholine receptor subunit alpha-7 (Q05941 whole entry): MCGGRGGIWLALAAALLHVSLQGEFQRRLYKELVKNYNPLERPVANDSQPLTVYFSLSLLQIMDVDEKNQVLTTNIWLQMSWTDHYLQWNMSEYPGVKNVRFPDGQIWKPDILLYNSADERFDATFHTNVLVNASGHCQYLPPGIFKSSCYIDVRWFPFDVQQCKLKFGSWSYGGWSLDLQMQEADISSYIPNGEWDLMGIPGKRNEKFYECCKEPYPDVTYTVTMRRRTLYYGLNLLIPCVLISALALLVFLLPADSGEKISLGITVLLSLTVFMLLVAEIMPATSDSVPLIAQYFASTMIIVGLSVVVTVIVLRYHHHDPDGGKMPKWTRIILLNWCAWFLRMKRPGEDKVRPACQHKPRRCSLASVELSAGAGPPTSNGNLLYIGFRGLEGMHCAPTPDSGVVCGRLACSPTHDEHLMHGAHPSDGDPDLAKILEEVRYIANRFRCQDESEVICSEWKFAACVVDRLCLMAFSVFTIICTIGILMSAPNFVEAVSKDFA

Compound	Ki [1]	Ki [2] [nM]	Ki [3] [nM]	Ki [4] [nM]	Ki [5] [nM]
C[C@H](CCOC(=O)N(C)C)N(C)C [3-N,N-dimethylaminobutyl-N,N-dimethylcarbamate]	17 nM and 66 nM	> 10000	370	3600	9
O=c1cccc2n1CC1CNCC2C1 (stereo unspecified) [CAS_485-35-8]	1.3 nM and 6.8 nM	> 10000	130	–	–
CN(C)C(=O)OCC[N+](C)(C)C [CAS_84607]	–	–	–	1200	20
CN(C)CCOC(=O)N(C)C [DMCAE]	–	–	–	> 10000	5700
COC(=O)Nc1ccc(Cl)c(Cl)c1 [SWEP]	–	> 10000	2700	150	23

Source: BindingDB's records for doi:10.1124/mol.64.4.865 (The Danish University of Pharmaceutical Sciences, 2003)
